ChEMBL document CHEMBL1131754, “2-heterosubstituted-3-(4-methylsulfonyl)phenyl-5-trifluoromethyl pyridines as selective and orally active cyclooxygenase-2 inhibitors” (Bioorg Med Chem Lett, 1999)

Tests used:
[1] = target: T1, Prostaglandin G/H synthase 2 (Homo sapiens, UniProt P35354)
T1 sequence (P35354 whole entry): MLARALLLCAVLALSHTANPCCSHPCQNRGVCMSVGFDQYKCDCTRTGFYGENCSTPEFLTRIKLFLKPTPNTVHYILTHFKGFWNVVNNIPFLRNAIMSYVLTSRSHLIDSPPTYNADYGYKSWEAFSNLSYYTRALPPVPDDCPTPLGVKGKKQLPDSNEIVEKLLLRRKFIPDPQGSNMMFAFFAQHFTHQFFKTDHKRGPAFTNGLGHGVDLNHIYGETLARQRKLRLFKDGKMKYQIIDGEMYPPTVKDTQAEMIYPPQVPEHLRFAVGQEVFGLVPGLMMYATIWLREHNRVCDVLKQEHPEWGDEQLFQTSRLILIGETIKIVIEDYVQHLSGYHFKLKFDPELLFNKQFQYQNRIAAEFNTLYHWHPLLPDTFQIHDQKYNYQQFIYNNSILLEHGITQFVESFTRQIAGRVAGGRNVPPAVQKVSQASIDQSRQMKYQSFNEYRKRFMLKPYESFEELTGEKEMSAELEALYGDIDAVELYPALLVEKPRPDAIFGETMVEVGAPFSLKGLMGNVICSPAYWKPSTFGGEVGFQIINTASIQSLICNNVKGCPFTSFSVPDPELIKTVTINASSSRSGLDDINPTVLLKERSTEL
Description: Inhibition of Prostaglandin G/H synthase 2 in human whole blood (HWB) assay

[2] = target: T1, Prostaglandin G/H synthase 2; format: cell-based, CHO whole
Description: Inhibition of Prostaglandin G/H synthase 2 in CHO whole cell assay

[3] = target: T2, Prostaglandin G/H synthase 1 (Homo sapiens, UniProt P23219); assay: In vitro inhibitory concentration required against Cyclooxygenase-1 (COX-1) determined in human whole blood (HWB) assay; format: tissue-based
[4] = system: Rattus norvegicus; assay: Compound was tested in vivo for its efficacy in the rat pyresis assay; format: functional
[5] = Half-life in rats with metabolic oxidation; format: ADME, organism-based; settings: rat, in vivo
[6] = system: Rattus norvegicus; assay: Compound was tested in vivo for its efficacy in the rat paw edema assay; format: functional
[7] = target: T2, Prostaglandin G/H synthase 1
Description: Inhibition of Prostaglandin G/H synthase 1 in human whole blood (HWB) assay

[8] = Oral bioavailability in rat; format: ADME, organism-based; settings: in vivo
[9] = system: Rattus norvegicus; assay: Compound was tested in vivo for its efficacy in the model of carrageenan-induced hyperalgesia in rats; format: functional; settings: read-out: ID50 (the source's name)
[10] = Half-life in rats was determined; format: ADME, organism-based; settings: rat, in vivo
[11] = Half-life in rats; format: ADME, organism-based; settings: rat, in vivo
[12] = Maximum concentration in rats at 1-2 hours; format: ADME, organism-based; settings: rat, in vivo
[13] = Half life in rats; format: ADME, organism-based; settings: rat, in vivo
[14] = Maximum concentration in rats; format: ADME, organism-based; settings: rat, in vivo
[15] = Cmax in rats determined 6 hours after oral dosing of 20 mg/kg; format: ADME, organism-based; parameters: dose 20 mg/kg, route oral; settings: rat, in vivo

T2 sequence (P23219 whole entry): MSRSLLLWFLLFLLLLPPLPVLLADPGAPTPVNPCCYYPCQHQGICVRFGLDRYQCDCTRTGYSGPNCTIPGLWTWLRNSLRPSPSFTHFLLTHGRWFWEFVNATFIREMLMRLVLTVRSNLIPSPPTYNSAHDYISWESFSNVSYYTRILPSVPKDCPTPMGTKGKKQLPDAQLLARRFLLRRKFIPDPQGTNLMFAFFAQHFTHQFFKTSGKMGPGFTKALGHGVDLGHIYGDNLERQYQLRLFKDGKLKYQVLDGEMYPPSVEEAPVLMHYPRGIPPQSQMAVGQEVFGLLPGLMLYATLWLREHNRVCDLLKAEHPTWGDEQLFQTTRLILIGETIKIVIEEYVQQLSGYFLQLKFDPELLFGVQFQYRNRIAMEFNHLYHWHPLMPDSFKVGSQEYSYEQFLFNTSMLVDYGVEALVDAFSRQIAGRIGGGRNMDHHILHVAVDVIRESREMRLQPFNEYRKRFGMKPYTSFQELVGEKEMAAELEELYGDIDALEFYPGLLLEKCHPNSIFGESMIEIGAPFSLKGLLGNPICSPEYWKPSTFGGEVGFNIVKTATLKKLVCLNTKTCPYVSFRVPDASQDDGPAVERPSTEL

Row | Structure (SMILES) | IC50 [1] [nM] | IC50 [2] [nM] | IC50 [7] [nM] | bioavailability [8] [%] | ED50 [4] [mg/kg] | ED50 [6] [mg/kg] | other results
1 | CS(=O)(=O)c1ccc(-c2cc(C(F)(F)F)cnc2Oc2ccccc2)cc1 | < 400 | < 200 | – | – | – | – | IC50 [3]: < 1240 nM
2 | CS(=O)(=O)c1ccc(-c2cc(C(F)(F)F)cnc2OCc2ccc(Cl)cc2)cc1 | > 33000 | < 200 | > 100000 | – | – | – | –
3 | C[C@]1(O)CCC[C@H]1Oc1ncc(C(F)(F)F)cc1-c1ccc(S(C)(=O)=O)cc1 | – | – | > 100000 | > 75 | 1.6 | 0.4 | half-life [13]: ≤ 4 h; Cmax [14]: 9 µM
4 | CS(=O)(=O)c1ccc(-c2cc(C(F)(F)F)cnc2N2CCCC(CO)C2)cc1 (stereo not drawn) | 800 | < 200 | 41000 | > 75 | 0.5 | 1.4 | half-life [10]: < 2 h
5 | CS(=O)(=O)c1ccc(-c2cc(Br)sc2-c2ccc(F)cc2)cc1 [DUP-697] | – | – | – | – | – | 1.3 | –
6 | COc1ccc2c(c1)c(CC(=O)O)c(C)n2C(=O)c1ccc(Cl)cc1 [INDOMETHACIN] | – | – | – | – | 1.1 | 2 | ED50 [9]: 1.5 mg/kg

Second part, led by results:

Row | IC50 [1] [nM] | IC50 [2] [nM] | IC50 [7] [nM] | bioavailability [8] [%] | Structure (SMILES) | ED50 [4] [mg/kg] | ED50 [6] [mg/kg] | other results
7 | 140 | < 200 | 29000 | > 75 | C[C@H](CO)Sc1ncc(C(F)(F)F)cc1-c1ccc(S(C)(=O)=O)cc1 | 0.3 | 0.3 | half-life [5]: < 2 h; ED50 [9]: 0.65 mg/kg
8 | – | – | – | > 75 | CC(C)(O)CSc1ncc(C(F)(F)F)cc1-c1ccc(S(C)(=O)=O)cc1 | 0.5 | 1.5 | half-life [10]: > 12 h
9 | – | – | 83000 | > 75 | CS(=O)(=O)c1ccc(-c2cc(C(F)(F)F)cnc2OCC2(O)CCCC2)cc1 | 2.2 | 1.8 | half-life [11]: ≤ 4 h; Cmax [12]: 9 µM
10 | 460 | < 200 | > 100000 | > 75 | C[C@H](Oc1ncc(C(F)(F)F)cc1-c1ccc(S(C)(=O)=O)cc1)C(C)(C)O | 0.8 | 2.2 | –
11 | 4700 | < 200 | > 100000 | > 75 | CCC(O)(CC)[C@H](C)Oc1ncc(C(F)(F)F)cc1-c1ccc(S(C)(=O)=O)cc1 | 1.3 | 2.8 | –
12 | 500 | < 200 | > 100000 | – | CS(=O)(=O)c1ccc(-c2cc(C(F)(F)F)cnc2OCC(F)(F)F)cc1 | – | 2.4 | Cmax [15]: 2.4 µM
13 | 1000 | < 200 | > 100000 | > 75 | CC(C)(O)COc1ncc(C(F)(F)F)cc1-c1ccc(S(C)(=O)=O)cc1 | 6.8 | 1.9 | half-life [11]: > 12 h
14 | 500 | < 200 | > 100000 | – | CS(=O)(=O)c1ccc(-c2cc(C(F)(F)F)cnc2OC(C(F)(F)F)C(F)(F)F)cc1 | – | – | –
